Data taken from ChEMBL document CHEMBL1134935, “Novel lopinavir analogues incorporating non-Aromatic P-1 side chains--synthesis and structure--activity relationships” (Bioorg Med Chem Lett, 2002).

Legend:
[1] = target: Human immunodeficiency virus type 1 protease (Human immunodeficiency virus 1) (UniProt Q72874); test: Compound was tested for its inhibitory potency against HIV protease at 0.5 nM
[2] = system: MT4; test: Cytotoxicity against MT-4 cells; assay type: functional, cell-based; conditions: Homo sapiens
[3] = system: MT4; test: Antiviral activity against the cytopathic effects of HIV IIIB in MT-4 cells was assayed in the presence of 50% human serum; assay type: functional, cell-based

inhibition [1] [%]	SMILES	IC50 [2] [µM]	EC50 [3] [µM]
87	CCCC[C@@H](C[C@H](O)[C@H](Cc1ccccc1)NC(=O)COc1c(C)cccc1C)NC(=O)[C@H](C(C)C)N1CCCNC1=O	32.9	0.92
87	CCC(CC)C[C@@H](C[C@H](O)[C@H](Cc1ccccc1)NC(=O)COc1c(C)cccc1C)NC(=O)[C@H](C(C)C)N1CCCNC1=O	17.8	2.8
64	Cc1cccc(C)c1OCC(=O)N[C@@H](Cc1ccccc1)[C@@H](O)C[C@H](CC(C)C)NC(=O)[C@H](C(C)C)N1CCCNC1=O	34.4	0.32

Continued, compound first:

SMILES	inhibition [1] [%]	IC50 [2] [µM]	EC50 [3] [µM]
Cc1cccc(C)c1OCC(=O)N[C@@H](Cc1ccccc1)[C@@H](O)C[C@H](Cc1ccccc1)NC(=O)[C@H](C(C)C)N1CCCNC1=O [LOPINAVIR]	93	17.8	0.1
Cc1cccc(C)c1OCC(=O)N[C@@H](Cc1ccccc1)[C@@H](O)C[C@H](CCC(C)C)NC(=O)[C@H](C(C)C)N1CCCNC1=O	97	18.7	0.34
Cc1cccc(C)c1OCC(=O)N[C@@H](Cc1ccccc1)[C@@H](O)C[C@@H](NC(=O)[C@H](C(C)C)N1CCCNC1=O)C(C)C	93	56.2	0.26
